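48-hour exposure; five concentrations; linearly interpolated endpoints. GI50 = concentration required for 50% inhibition of growth. TGI marks complete inhibition of growth.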
Experiments:
Assay in all cases: growth of human tumour cells (NCI), 48 h
[1] = test system: HS 578T breast
[2] = test system: SR leukemia
[3] = test system: SK-MEL-5 melanoma
[4] = test system: M14 melanoma
[5] = test system: MDA-MB-435
[6] = test system: CAKI-1 renal
[7] = test system: A549 NSCLC
[8] = test system: DU-145 prostate
[9] = test system: UACC-257 melanoma
[10] = test system: HCT-15 colon
[11] = test system: HT29 colon
[12] = test system: HOP-62 NSCLC
[13] = test system: MALME-3M melanoma
[14] = test system: SN12C renal
[15] = test system: NCI-H23 lung
[16] = test system: RPMI-8226 leukemia
[17] = test system: UO-31 renal
[18] = test system: HOP-92 NSCLC
[19] = test system: SW-620 colon
[20] = test system: RXF 393 renal
[21] = test system: TK-10 renal
[22] = test system: HCT-116 colon
[23] = test system: IGROV1 ovarian
[24] = test system: SNB-19 CNS
[25] = test system: OVCAR-8 ovarian
[26] = test system: BT-549 breast
[27] = test system: COLO 205 colon
[28] = test system: NCI-H460 lung
[29] = test system: A498 renal

Cc1cc(I)cc(CN(C)CCN2CCOCC2)c1O
GI50 [1]: 23.4 µM
TGI [1]: > 72.5 µM
GI50 [2]: 12.5 µM
TGI [2]: 97.7 µM
GI50 [3]: 35.3 µM
TGI [3]: > 85.6 µM
GI50 [4]: 79.3 µM
TGI [4]: > 100 µM
GI50 [5]: 67.3 µM
TGI [5]: > 100 µM
GI50 [6]: > 61.4 µM
TGI [6]: > 100 µM
GI50 [7]: 54.6 µM
TGI [7]: > 100 µM
GI50 [8]: 61 µM
TGI [8]: > 100 µM
GI50 [9]: 99.5 µM
TGI [9]: > 100 µM
GI50 [10]: 38.8 µM
TGI [10]: > 100 µM
GI50 [11]: 33.4 µM
TGI [11]: > 100 µM
GI50 [12]: 64.7 µM
TGI [12]: > 100 µM
GI50 [13]: > 78.8 µM
TGI [13]: > 100 µM
GI50 [14]: > 68 µM
TGI [14]: > 100 µM
GI50 [15]: 62.7 µM
TGI [15]: > 100 µM
GI50 [16]: 30.2 µM
TGI [16]: > 100 µM
GI50 [17]: 45.2 µM
TGI [17]: > 100 µM
GI50 [18]: 38 µM
TGI [18]: > 100 µM
GI50 [19]: 55.2 µM
TGI [19]: > 100 µM
GI50 [20]: > 88 µM
TGI [20]: > 100 µM
GI50 [21]: > 76.8 µM
TGI [21]: > 100 µM
GI50 [22]: 30.4 µM
TGI [22]: > 100 µM
GI50 [23]: 37.2 µM
TGI [23]: > 100 µM
GI50 [24]: > 87.1 µM
TGI [24]: > 100 µM
GI50 [25]: 75.1 µM
TGI [25]: > 100 µM
GI50 [26]: 43.7 µM
TGI [26]: > 100 µM
GI50 [27]: 71.6 µM
TGI [27]: > 100 µM
GI50 [28]: 43.4 µM
TGI [28]: > 100 µM
GI50 [29]: 43.3 µM

— PubChem BioAssay (NCI)
